The values that follow come from ChEMBL document CHEMBL3822404, “Design, synthesis and biological evaluation of novel 3-alkylsulfanyl-4-amino-1,2,4-triazole derivatives” (Bioorg Med Chem Lett, 2016).

Some results are limits rather than exact numbers.

Tested on in the first test: not listed separately
Kind of test: Antiproliferative activity against human PC3 cells measured after 48 hrs by MTT assay. The test is classed as functional, cell-based. The note with it: PC-3, 48 h.
For the molecule `COc1cc(-c2nnc(SCC(=O)Nc3ccccc3F)n2N)cc(OC)c1OC`, the IC50 was 36.7 µM.
Still for that read-out and setting: with `COc1cc(-c2nnc(SCC(=O)c3ccc(Cl)cc3)n2N)cc(OC)c1OC` the figure was more than 100 µM; with `COc1cc(-c2nnc(SCC(=O)NCCc3ccccc3)n2N)cc(OC)c1OC`, 80.5 µM.
Take `COc1cccc(NC(=O)CSc2nnc(-c3cc(OC)c(OC)c(OC)c3)n2N)c1`: the half-inhibitory concentration (IC50) was more than 100 µM.
Molecule `COc1cc(-c2nnc(SCC(=O)c3ccc(F)c(F)c3)n2N)cc(OC)c1OC` displayed an IC50 of more than 100 µM.
Regarding `COc1ccc(CCNC(=O)CSc2nnc(-c3cc(OC)c(OC)c(OC)c3)n2N)cc1`, the half-inhibitory concentration (IC50) was 73.6 µM.
Regarding `COc1cc(-c2nnc(SCC(=O)c3cccc(Br)c3)n2N)cc(OC)c1OC`, the IC50 is more than 100 µM.
Molecule `COc1cc(-c2nnc(SCC(=O)NCCc3ccc(F)cc3)n2N)cc(OC)c1OC` had an IC50 of 56.1 µM.
Regarding `O=c1[nH]cc(F)c(=O)[nH]1` [FLUOROURACIL], the half-inhibitory concentration (IC50) was 57 µM. The IC50 values of the last two molecules are within 1.5-fold of each other.
Same read-out and setting: to `COc1ccc(C(=O)CSc2nnc(-c3cc(OC)c(OC)c(OC)c3)n2N)cc1` belongs 97.9 µM.
Molecule `COc1cc(-c2nnc(SCC(=O)NCCc3ccc(C)cc3)n2N)cc(OC)c1OC` registered an IC50 of 41.3 µM.
On the same count and under the same terms, to `COc1cc(-c2nnc(SCC(=O)c3ccc(C)cc3)n2N)cc(OC)c1OC` belongs 31.3 µM.

The subject of a further test is HeLa. The experiment in a line: Induction of cell cycle arrest in human HeLa cells assessed as accumulation at S phase at 4 uM measured after 12 to 18 hrs by […] cell sorting analysis (reference value: 19.02%). The test is classed as functional.
Details: not given
Consider `COc1cc(-c2nnc(SCC(=O)c3ccc(C)cc3)n2N)cc(OC)c1OC`, for which the Activity was determined as 17.42%.

In the next test the test system is HeLa. Kind of test: Induction of cell cycle arrest in human HeLa cells assessed as accumulation at G2/M phase at 4 uM measured after 12 to 18 hrs by […] cell sorting analysis (reference value: 16.67%). The test is classed as functional.
Details: not given
On to `COc1cc(-c2nnc(SCC(=O)c3ccc(C)cc3)n2N)cc(OC)c1OC`, for which the Activity was determined as 70.18%.

The next test relates to HEK293. Kind of test: Cytotoxicity against HEK293 cells measured after 48 hrs by MTT assay. The note with it: Homo sapiens, HEK293, 48 h. The test is classed as cell-based.
In turn, `COc1cc(-c2nnc(SCC(=O)Nc3ccccc3F)n2N)cc(OC)c1OC` registered an IC50 of more than 100 µM.
`COc1cccc(NC(=O)CSc2nnc(-c3cc(OC)c(OC)c(OC)c3)n2N)c1` gave an IC50 of 100 µM.
For the molecule `COc1ccc(C(=O)CSc2nnc(-c3cc(OC)c(OC)c(OC)c3)n2N)cc1`, the midpoint of inhibition, the IC50, lay at 100 µM.
`COc1cc(-c2nnc(SCC(=O)c3ccc(C)cc3)n2N)cc(OC)c1OC` came in with a 50% inhibitory concentration (IC50) of 100 µM.

Another test relates to HeLa. The experiment in a line: Induction of cell cycle arrest in human HeLa cells assessed as accumulation at G2/M phase measured after 18 hrs by […] cell sorting analysis. The test is classed as functional, cell-based.
Details: not given
Regarding `COc1cc(-c2nnc(SCC(=O)c3ccc(C)cc3)n2N)cc(OC)c1OC`, the Activity entry is “Dose-dependent effect”.

A further test relates to HepG2. Kind of test: Antiproliferative activity against human HepG2 cells measured after 48 hrs by MTT assay. The test is classed as functional, cell-based. The note with it: HepG2, 48 h.
As to `COc1cc(-c2nnc(SCC(=O)Nc3ccccc3F)n2N)cc(OC)c1OC`, the 50% inhibitory concentration (IC50) was determined as 18.7 µM.
On the same count and under the same terms, to `COc1cc(-c2nnc(SCC(=O)c3ccc(Cl)cc3)n2N)cc(OC)c1OC` belongs more than 100 µM; to `COc1cc(-c2nnc(SCC(=O)NCCc3ccccc3)n2N)cc(OC)c1OC`, more than 100 µM.
Still for that read-out and setting: with `COc1cccc(NC(=O)CSc2nnc(-c3cc(OC)c(OC)c(OC)c3)n2N)c1` the figure was more than 100 µM; with `COc1cc(-c2nnc(SCC(=O)c3ccc(F)c(F)c3)n2N)cc(OC)c1OC`, more than 100 µM; with `COc1ccc(CCNC(=O)CSc2nnc(-c3cc(OC)c(OC)c(OC)c3)n2N)cc1`, more than 100 µM.
The same measure, in the same setting: to `COc1cc(-c2nnc(SCC(=O)c3cccc(Br)c3)n2N)cc(OC)c1OC` belongs 56 µM.
For `COc1cc(-c2nnc(SCC(=O)NCCc3ccc(F)cc3)n2N)cc(OC)c1OC`, the IC50 was more than 100 µM.
For `COc1ccc(C(=O)CSc2nnc(-c3cc(OC)c(OC)c(OC)c3)n2N)cc1`, the concentration for half-maximal inhibition (IC50) is more than 100 µM.
On the same count and under the same terms, to `COc1cc(-c2nnc(SCC(=O)NCCc3ccc(C)cc3)n2N)cc(OC)c1OC` belongs more than 100 µM.
`COc1cc(-c2nnc(SCC(=O)c3ccc(C)cc3)n2N)cc(OC)c1OC` displayed a half-maximal inhibitory concentration (IC50) of more than 100 µM.

Another test relates to HeLa. The experiment in a line: Induction of cell cycle arrest in human HeLa cells assessed as accumulation at G0/G1 phase at 8 uM measured after 12 to 18 hrs by […] cell sorting analysis (reference value: 64.31%). The test is classed as functional.
Details: not given
On to `COc1cc(-c2nnc(SCC(=O)c3ccc(C)cc3)n2N)cc(OC)c1OC`, for which the Activity worked out at 7.37%.

For the next test, the system named is HeLa. Kind of test: Induction of cell cycle arrest in human HeLa cells assessed as accumulation at G0/G1 phase at 2 uM measured after 12 to 18 hrs by […] cell sorting analysis (reference value: 64.31%).
Details: not given
In kind it is functional.
As for `COc1cc(-c2nnc(SCC(=O)c3ccc(C)cc3)n2N)cc(OC)c1OC`, the Activity came to 53.39%.

The test system of the next test is HeLa. The experiment in a line: Antiproliferative activity against human HeLa cells measured after 48 hrs by MTT assay. In kind it is functional, cell-based.
Details: not given
`COc1cc(-c2nnc(SCC(=O)Nc3ccccc3F)n2N)cc(OC)c1OC`: the half-maximal inhibitory concentration (IC50) stood at 38.2 µM.
Same read-out and setting: to `COc1cc(-c2nnc(SCC(=O)c3ccc(Cl)cc3)n2N)cc(OC)c1OC` belongs 13.1 µM; to `COc1cc(-c2nnc(SCC(=O)NCCc3ccccc3)n2N)cc(OC)c1OC`, more than 100 µM; to `COc1cccc(NC(=O)CSc2nnc(-c3cc(OC)c(OC)c(OC)c3)n2N)c1`, 4.02 µM.
`COc1cc(-c2nnc(SCC(=O)c3ccc(F)c(F)c3)n2N)cc(OC)c1OC` yielded a half-inhibitory concentration (IC50) of more than 100 µM.
The same measure, in the same setting: with `COc1ccc(CCNC(=O)CSc2nnc(-c3cc(OC)c(OC)c(OC)c3)n2N)cc1` the figure was more than 100 µM.
Same read-out and setting: to `COc1cc(-c2nnc(SCC(=O)c3cccc(Br)c3)n2N)cc(OC)c1OC` belongs 77.5 µM; to `COc1cc(-c2nnc(SCC(=O)NCCc3ccc(F)cc3)n2N)cc(OC)c1OC`, 66.5 µM.
On the same count and under the same terms, with `O=c1[nH]cc(F)c(=O)[nH]1` [FLUOROURACIL] the figure was 57.2 µM; with `COc1ccc(C(=O)CSc2nnc(-c3cc(OC)c(OC)c(OC)c3)n2N)cc1`, 17.4 µM; with `COc1cc(-c2nnc(SCC(=O)NCCc3ccc(C)cc3)n2N)cc(OC)c1OC`, more than 100 µM.
As for `COc1cc(-c2nnc(SCC(=O)c3ccc(C)cc3)n2N)cc(OC)c1OC`, the IC50 was determined as 2.94 µM. This counts as single-digit micromolar.

The next test relates to HeLa. The experiment in a line: Induction of cell cycle arrest in human HeLa cells assessed as accumulation at S phase at 2 uM measured after 12 to 18 hrs by […] cell sorting analysis (reference value: 19.02%). In kind it is functional.
Details: not given
Take `COc1cc(-c2nnc(SCC(=O)c3ccc(C)cc3)n2N)cc(OC)c1OC`: the Activity was 14.07%.

Tested on in the next test: not listed separately
The experiment in a line: Antiproliferative activity against human HCT116 cells measured after 48 hrs by MTT assay. The note with it: HCT-116, 48 h. In kind it is functional, cell-based.
Regarding `COc1cc(-c2nnc(SCC(=O)Nc3ccccc3F)n2N)cc(OC)c1OC`, half-maximal inhibition (IC50) was put at 1.16 µM.
`COc1cc(-c2nnc(SCC(=O)c3ccc(Cl)cc3)n2N)cc(OC)c1OC` displayed an IC50 of 7.5 µM. Compared with the last molecule, the IC50 is about 6.5-fold higher.
On the same count and under the same terms, with `COc1cc(-c2nnc(SCC(=O)NCCc3ccccc3)n2N)cc(OC)c1OC` the figure was more than 100 µM; with `COc1cccc(NC(=O)CSc2nnc(-c3cc(OC)c(OC)c(OC)c3)n2N)c1`, 0.68 µM; with `COc1cc(-c2nnc(SCC(=O)c3ccc(F)c(F)c3)n2N)cc(OC)c1OC`, 10.4 µM.
On the same count and under the same terms, to `COc1ccc(CCNC(=O)CSc2nnc(-c3cc(OC)c(OC)c(OC)c3)n2N)cc1` belongs more than 100 µM; to `COc1cc(-c2nnc(SCC(=O)c3cccc(Br)c3)n2N)cc(OC)c1OC`, 5.32 µM; to `COc1cc(-c2nnc(SCC(=O)NCCc3ccc(F)cc3)n2N)cc(OC)c1OC`, more than 100 µM.
The same measure, in the same setting: to `O=c1[nH]cc(F)c(=O)[nH]1` [FLUOROURACIL] belongs 68.7 µM; to `COc1ccc(C(=O)CSc2nnc(-c3cc(OC)c(OC)c(OC)c3)n2N)cc1`, 1.24 µM.
On to `COc1cc(-c2nnc(SCC(=O)NCCc3ccc(C)cc3)n2N)cc(OC)c1OC`, for which the IC50 is more than 100 µM.
The same measure, in the same setting: with `COc1cc(-c2nnc(SCC(=O)c3ccc(C)cc3)n2N)cc(OC)c1OC` the figure was 0.37 µM.

The next test concerns HeLa. Kind of test: Induction of cell cycle arrest in human HeLa cells assessed as accumulation at G2/M phase at 8 uM measured after 12 to 18 hrs by […] cell sorting analysis (reference value: 16.67%). In kind it is functional.
Details: not given
`COc1cc(-c2nnc(SCC(=O)c3ccc(C)cc3)n2N)cc(OC)c1OC`: the Activity is on record as 78.81%.

For a further test, the system named is HeLa. Kind of test: Induction of cell cycle arrest in human HeLa cells assessed as accumulation at S phase at 8 uM measured after 12 to 18 hrs by […] cell sorting analysis (reference value: 19.02%). In kind it is functional.
Details: not given
Regarding `COc1cc(-c2nnc(SCC(=O)c3ccc(C)cc3)n2N)cc(OC)c1OC`, the Activity was found to be 13.81%.

Another test deals with HeLa. Kind of test: Induction of cell cycle arrest in human HeLa cells assessed as accumulation at G0/G1 phase at 4 uM measured after 12 to 18 hrs by […] cell sorting analysis (reference value: 64.31%). In kind it is functional.
Details: not given
As for `COc1cc(-c2nnc(SCC(=O)c3ccc(C)cc3)n2N)cc(OC)c1OC`, the Activity was found to be 12.41%.

Another test relates to HeLa. Kind of test: Induction of cell cycle arrest in human HeLa cells assessed as accumulation at G2/M phase at 2 uM measured after 12 to 18 hrs by […] cell sorting analysis (reference value: 16.67%). In kind it is functional.
Details: not given
On to `COc1cc(-c2nnc(SCC(=O)c3ccc(C)cc3)n2N)cc(OC)c1OC`, for which the Activity was found to be 32.55%.
